Where two headings read alike, the source gives them in different places.
Columns and labels:
[1] = Influence of PARP inhibitor on bleeding time (rat tail cut); conditions: male SD rat, intravenous bolus, tail tip cut 5 minutes after administration, 30 minutes at a maximum; compound A 30 mg/kg, heparin 100 U/kg; saline control about 15 minutes
Protocol: (§2) A rat (male Sprague Dawley (SD) rat, 7 weeks old; Shimizu Laboratory Supplies Co., Ltd. (SLC))) was anesthetized with urethane (1.2 g/6 mL/kg, i.p.), and then the animal was placed on an incubation mat (Microtemp, Seabrook Medical Systems) set to 37° C. after indwelling a catheter (EMS cutdown tube, JMS Co., Ltd.) made of vinyl chloride in a left femoral vein for administration of a test substance. […] Five minutes after the administration, a tip of the tail was cut at the position of 2 mm with a razor (single-edged feather), and immediately, the tail was immersed in saline (Otsuka normal saline) warmed to 37° C. Finally, the time until the hemorrhage was stopped (30 minutes at a maximum) was measured, which was regarded as bleeding time.

[2] = tested on: normal human umbilical cord vein endothelial cell; experiment: Effect on vascular endothelial cell death induced by hydrogen peroxide (WST-1 method); format: cell-based; conditions: 0.5 mM hydrogen peroxide, 6 hours, compound added 15 minutes before
Protocol: A normal human umbilical cord vein endothelial cell (Cat. No. CRL-1730; Dainippon Pharmaceutical Co., Ltd.) was cultured in serum-containing liquid culture medium for vascular endothelial cell (Nissui Pharmaceutical Co., Ltd.) under conditions of 37° C., 5% CO2. The exchange of the culture fluid was performed every other day. The cells proliferated to confluent state were sub-cultured. 5×10^4 cells/mL of cell suspension was disseminated in an amount of 500 μL/well to a gelatin-coated 24 well plate (Iwaki). A few days later, the culture medium was removed after confirming that the cells were proliferated to confluent state, and changed to 480 μL/well of Dulbecco's Modified Eagle's Medium (DMEM; GIBCO-BRL)). The compound A was adjusted to become 50 times larger than the addition final concentration in DMEM after the dissolution of the compound A to dimethyl sulfoxide (DMSO). The sterilization was performed by using 0.22 μm filter for filtration sterilization (Millex, MILLIPORE). […]
The evaluation was performed by means of WST-1 method (modulated MTT method) with the use of Cell Counting Kit (DOJINDO). […] After that, 200 μL/well of the culture supernatant was collected, and then the absorbance (450 nm) was measured. The cell death inhibitory rate of the test substance treated group was calculated, regarding that the cell survival rate of the control group (untreated group) as a standard (100%).

[3] = tested on: cerebral hemorrhage model with the use of SHR; experiment: Cerebral hemorrhage in MCA occlusion-recanalization model, intracerebral hemoglobin by Drabkin's reagent; format: in vivo, rat; conditions: 3 mg/kg/h continuous i.v. for 9 hours right after occlusion; measured 24 hours after MCA occlusion; sham 13.0±1.1, saline 25.5±2.2
Protocol: (§1) For the animal, a male spontaneously hypertensive rat (hereinafter abbreviated to SHR) (14 to 15 week old); Japan Charles River) was used. The preparation of middle cerebral artery (hereinafter abbreviated to MCA) occlusion-recanalization model of rat was performed according to the method of Koizumi, et al., (in Stroke 8: 1-7, 1986). In particular, the rat was subjected to anesthetic induction by 4% halothane (halothane vaporizer, Shinano Co., Ltd.) in 30% oxygen/70% air. The anesthesia was maintained by means of 2.5% halothane. The animal was placed in a dorsal position. The dissection of anterior neck midline was performed, the left side of the common carotid artery and the external carotid artery were exfoliated from the surrounding connective tissue around the left carotid artery bifurcation, and then a thread was hooked around the artery to ligate, respectively. Afterwards, the left internal carotid artery was exfoliated from the surrounding connective tissue, and then a thread was hooked around the artery. […] An amount of cerebral hemorrhage was measured 24 hours after the MCA occlusion.
An amount of cerebral hemorrhage was measured on the basis of the content of intracerebral hemoglobin (Hb) as an indicator according to a method of Asahi et al. (J Cereb Blood Flow Metab 20: 452-457, 2000)). […] Afterwards, absorbance was measured at 540 nm of photometry wavelength. […]

[4] = tested on: cerebral hemorrhage model with the use of SHR; experiment: Cerebral hemorrhage in MCA occlusion-recanalization model, intracerebral hemoglobin by ELISA; format: in vivo, rat; conditions: 24 hours after MCA occlusion, sham 4.5±0.74, saline 19.6±2.21
Protocol: as §1, with “artery. The range of about 5 mm from the tip of a 4-0 nylon thread for surgery (NC sterilization operation thread, Nichiyo industry Co., Ltd.) (25 mm long) was silicon-coated with an impression material for dentistry (mixture solution of XANTOPREN VL plus and OPTOSIL-XANTOPREN ACTIVATOR, Heraeus Dental Material Co., Ltd.). Then the thread was inserted to the left carotid artery from the left carotid artery bifurcation. Then, the origin part of the left MCA was occluded by means of fixing with a Sugita type clip (Mizuho Medical Industry Co., Ltd.). Nine hours after the occlusion, rat was subjected to anesthetic induction with 4% halothane in 30% oxygen/70% air. The anesthesia was maintained by means of 2.5% halothane.” for “artery.”
In addition, intracerebral hemoglobin content can be also measured by using the following methods, in particular, an enzyme-linked immunosorbent assay (ELISA). […]

[5] = rat, in vivo, iv, 30 mg/kg
Protocol: as §2

Compound	bleeding time [1]	inhibitory effect of the vascular endothelial cell disorder (cell death inhibitory rate) [2]	content of intracerebral hemoglobin [3]	content of intracerebral hemoglobin ([4]; 1 mg/kg/h)	content of intracerebral hemoglobin ([4]; 3 mg/kg/h)	content of intracerebral hemoglobin ([4]; 10 mg/kg/h)	bleeding time [5]
heparin	≥ 30 min						
O=C(Cc1n[nH]c(=O)c2c1CCCC2)NCCCCN1CCOCC1 [compound A, 4-(N-(4-(morpholin-4-yl)butyl)carbamoylmethyl)-5,6,7,8-tetrahydrophthalazin-1(2H)-one]		showed an inhibitory effect of the vascular endothelial cell disorder dose-dependently	17.7 ± 1.3 µL	15.4 ± 2.19 µg/mL	15.5 ± 2.14 µg/mL	10.3 ± 1.24 µg/mL	about 15 minutes

Reference: patent publication US20090226412A1, “AGENT FOR REDUCTION OF BLEEDING IN CEREBROVASCULAR DISORDER” (ONO PHARMACEUTICAL CO., LTD.,, priority 2005, published 2009)
